Data on one molecule can be found in publication PMC8905580, “Aggregation Behavior of Structurally Similar Therapeutic Peptides Investigated by ^1H NMR and All-Atom Molecular Dynamics Simulations” (Molecular Pharmaceutics, 2022).

Series [1] in a line: Approximate sample pH by pH indicator strips. It counts as physicochemical. The conditions noted are these: all concentrations and time points investigated, H2O.
Details of series [2]: method as in PMID 33586081. The conditions noted are these: seen as reduction in total detectable signal and decrease in fraction of sharp signals; cited from earlier work.
A short description of series [3]: 1H NMR in neat H2O, aggregation with concentration and time. Type of series: physicochemical. The procedure: (§1) ^1H NMR experiments were performed at peptide concentrations of 0.1, 0.5, 1, 2, 5, and 10 mM in 100% H2O. Peptide solutions were prepared in glass vials without pH adjustments, as the addition of concentrated acid or base results in local pH variations that might induce aggregation. Diffusion NMR experiments were performed at peptide concentrations of 3 and 10 mM in 100% D2O. Thus, the diffusion NMR results may not be perfectly representative of the situation in the samples in H2O, but general conclusions can still be drawn.
(§2) The samples were gently agitated, by manual swirling, until the solution appeared visually homogeneous and 450 μL of each sample was transferred to disposable 5 mm NMR tubes (Type 5TA 178 mm from Teknolab Sorbent, Sweden). Aliquots were pipetted slowly to reduce the risk of possible shear-induced aggregation. The time between sample preparation and the start of the NMR measurement was around 15 min. On selected samples, the approximate pH was assessed with pH indicator strips (Scharlau, pH 2.0–9.0, TP0209000S) after aliquots for the NMR samples were taken out.
NMR experiments were performed at 25 °C on either a Varian Unity Inova 500 MHz spectrometer equipped with a Z-spec DBG500-5EF 5 mm dual broadband gradient probe or a Bruker AVANCE III HD 500 MHz spectrometer equipped with a BBO probe, Bruker SMART probe. Spectra were recorded with an excitation sculpting sequence for solvent suppression.[40] […] On the Varian, 300 scans were used on samples of 0.1–1 mM and 64 on 1–10 mM (1 mM was measured using both settings to bridge the concentration series and ensure comparability), which gave adequate signal for unaggregated samples. […]
The absolute integral values (IntC), at each investigated concentration, for signals arising from the methyl groups of leucine (6H; for D-Phe^6-GnRH, cetrorelix, and degarelix) or nor-leucine (3H; for ozarelix) were determined. […] Additionally, IntC of the signal from the acetate counterion (a singlet) were determined for all peptides. […]

Series [4] can be described thus: Visual inspection of samples for turbidity and viscosity. Type of series: physicochemical. The conditions noted are these: all samples 0.1-10 mM acetate salt in 100% H2O, no buffer, no pH adjustment; NMR tube in light box compared with pure water; room temperature. On the procedure:
as §1, §2
The NMR tubes containing samples were visually inspected in a light box and compared to an NMR tube containing pure water to simplify identification of visually detectable aggregates.

Each structure is given as a SMILES string. Square brackets hold non-standard residues; d marks the D form. Peptide text beside a SMILES is read from it. * marks the point of attachment. dPhe(4-NHCONH2) = NC(=O)Nc1ccc(C[C@@H](N)C(=O)O)cc1; Dihydroorotyl(S) = O=C1C[C@@H](C(=O)*)NC(=O)N1; dPhe(4-Cl) = N[C@H](Cc1ccc(Cl)cc1)C(=O)O; Phe(4-NH2) = Nc1ccc(C[C@H](N)C(=O)O)cc1; d2Nal = N[C@H](Cc1ccc2ccccc2c1)C(=O)O; Lys(iPr) = CC(C)NCCCC[C@H](N)C(=O)O; d3Pal = N[C@H](Cc1cccnc1)C(=O)O

In the case of `CC(=O)N[C@H](Cc1ccc2ccccc2c1)C(=O)N[C@H](Cc1ccc(Cl)cc1)C(=O)N[C@H](Cc1cccnc1)C(=O)N[C@@H](CO)C(=O)N[C@@H](Cc1ccc(NC(=O)[C@@H]2CC(=O)NC(=O)N2)cc1)C(=O)N[C@H](Cc1ccc(NC(N)=O)cc1)C(=O)N[C@@H](CC(C)C)C(=O)N[C@@H](CCCCNC(C)C)C(=O)N1CCC[C@H]1C(=O)N[C@H](C)C(N)=O` [degarelix] (Ac-[d2Nal][dPhe(4-Cl)][d3Pal]S[Phe(4-NH2)](Dihydroorotyl(S))[dPhe(4-NHCONH2)]L[Lys(iPr)]P[dA]-NH2), in series [1], the “Sample pH” value is ~ 5.5. Also, the “Effect of buffer or background salt on aggregation (1H NMR)” value in series [2] was “strongly enhance aggregation”. For the same molecule, the “Concentration at which a distinct group of broad peaks at 1.2-1.6 ppm (intermediately sized aggregates) appears” value in series [3] (1H NMR, 25 °C, 100% H2O) was not below 1000 µM. Further, the “Change of 1H NMR spectra over time, 5 and 10 mM samples” value in series [3] (5 and 10 mM in 100% H2O, over investigated timespan (ozarelix: rapid 4 scan experiments about 15 and 25 min after preparation, 24 h)) is “increased notably in intensity”. Further, in series [3] (acetate salts, 0.1-10 mM in 100% H2O, 25 °C), the “Fate of acetate counterions in the peptide aggregates formed (1H NMR acetate signal)” value is “exclusion”. Besides, in series [4], the “Visual appearance of samples over the investigated time span” value is on record as “visually clear”.
